Experiments:
Format in all cases: cell-based
[1] = system: 32D cells transformed with IL-27R; assay: Cell growth and viability by trypan blue exclusion, JAK inhibitor I studies
Method: (§1) 32D cells were washed twice with RPMI containing 0.1% BSA and incubated in the same medium with either 0.1% DMSO, 0.5 μM or 2 μM JAK inhibitor I (EMD Biosciences/Calbiochem) for 3 hours before lysis. For cell growth and viability, cells were plated at a concentration of 2×10^5/ml in RPMI/10% FBS and either 0.1% DMSO or 0.5 μM JAK inhibitor I. Cell growth and viability were determined by trypan blue exclusion. After 24 hr of JAK inhibitor I treatment, the percentage of apoptotic cells and cell cycle profiles were determined by flow cytometry. See supporting information.
The role of JAK family kinases in transformation by IL-27R was addressed by culturing 32D/IL-27R transformed cells with the pan-JAK inhibitor, JAK inhibitor I (Thompson, J. E., et al., Photochemical preparation of a pyridone containing tetracycle: a Jak protein kinase inhibitor. Bioorg. Med. Chem. Lett., 2002 Apr. 22; 12(8):1219-23). Cells transformed with IL-27R were cultured in the presence of 0.1% DMSO or 0.5 μM JAK inhibitor I on day 0. […] Cell viability, determined using trypan blue, also decreases in the presence of the inhibitor, seen in FIG. 4(A). […] Transformed 32D cells were cultured in the presence of 0.1% DMSO (lane 2), 0.5 μM (lane 3) or 2 μM (lane 4) JAK inhibitor I. Control 32D cells starved of serum/IL-3 in the presence of 0.1% DMSO for three hr is shown in lane 1. […]

[2] = system: 32D cells transformed with IL-27R; assay: Cell cycle profile by flow cytometry of PI-stained cells; conditions: after 24 hr of treatment, FIG. 3(B)
Method: as §1
(§2) Flow Cytometry: Apoptosis and Cell Cycle Analysis. The percentage of apoptotic cells after 24 h JAK inhibitor I treatment was determined by flow cytometric analysis of annexin V-fluorescein (BD Biosciences) binding. […] Four-hundred microliters of 1× binding buffer was added to the samples and the cells were analyzed by flow cytometry. Flow cytometric analysis was performed on a FACS Scan instrument with CellQuest software (BD Biosciences) and data obtained were analyzed with FlowJo software (Tree Star). Cell cycle profiles after 24 h JAK inhibitor I treatment were determined by flow cytometric analysis of PI-stained cells. […] Stained cells were then analyzed by flow cytometry using a FACS Scan with CellQuest software and analyzed with FlowJo software (Tree Star). […]

[3] = system: 32D cells transformed with IL-27R; assay: Apoptosis by annexin V binding, flow cytometry; conditions: after 24 hr of treatment, FIG. 4(B)
Method: as §1, §2

[4] = system: JAK family kinases; assay: Immunoblot of STAT1, STAT3, STAT5 and ERK1/2 phosphorylation induced by IL-27R; conditions: 0.5 μM or 2 μM, 3 hours, FIG. 5
Method: Cells were washed in PBS and lysed in lysis buffer (25 mM Tris pH7.4, 150 mM NaCl, 25 mM NaF, 1% Triton-X100, 1 mM sodium vanadate, 2 mM sodium pyrophosphate, 10 μg/ml leupeptin, 2 μg/ml aprotinin, and 1 mM PMSF). Protein concentrations were determined by BCA protein assay kit (Pierce Biotechnology), and equal amounts of protein were analyzed by SDS-PAGE. Primary antibodies used in this study include: IL-27R (TCCR) (C-term) (Sigma), phospho-(P-) STAT1(Y701), P-STAT3(Y705), P-JAK1(Y1022/1023), P-JAK2(Y1007/1008), P-ERK(T202/Y204), JAK1, JAK2 (Cell Signaling Technology), P-STAT5(Y694) (BD Transduction Laboratories), STAT1, STAT3, STAT5, and ERK1 (Santa Cruz Biotechnology). Immunoblots were developed using ECL Western Blotting Substrate (Pierce Biotechnology).
32D cells were washed twice with RPMI containing 0.1% BSA and incubated in the same medium with either 0.1% DMSO, 0.5 μM or 2 μM JAK inhibitor I (EMD Biosciences/Calbiochem) for 3 hours before lysis. For cell growth and viability, cells were plated at a concentration of 2×10^5/ml in RPMI/10% FBS and either 0.1% DMSO or 0.5 μM JAK inhibitor I. Cell growth and viability were determined by trypan blue exclusion. After 24 hr of JAK inhibitor I treatment, the percentage of apoptotic cells and cell cycle profiles were determined by flow cytometry. See supporting information. […]

[5] = system: IL-27R-expressing 32D cells; assay: IL-27 stimulation, P-STAT1 immunoblot; conditions: 100 ng/ml IL-27, 10 min, cells lack gp130
Method: (§3) To stimulate cell cultures with IL-27, 32D and BaF3 cells expressing IL-27R were washed of growth factors and incubated in RPMI medium 1640 containing 0.1% BSA for 3 h. Cells were left untreated or stimulated with 100 ng/ml recombinant human IL-27 (R&D Systems) for 10 min. 293T cells were transfected with IL-27R, JAK2-V617F, and gp130 siRNA as indicated and as described. Two days later, cells were stimulated with 100 ng/ml human IL-27 for the length of time indicated and washed with ice-cold PBS, and cell lysates were prepared and analyzed by immunoblotting as described.
(§4) Finally, while IL-27R-mediated transformation is gp130-independent, these observations still support the paradigm that IL-27-mediated signaling requires gp130 (Pflanz, S., et al., J. Immunol., 2004 Feb. 15; 172(4):2225-31). […] Cells were left untreated or stimulated with 100 ng/ml IL-27 for 10 min and cell lysates analyzed by immunoblotting for phosphorylated (P-) and total STAT1. IL-27-induced signaling (as measured by STAT1 phosphorylation) is not observed in IL-27R-expressing 32D or BaF3 cells, which lack gp130, but is seen in IL-27R-expressing 293T cells, which express gp130, data not shown. […] Two days later, cells were stimulated with 100 ng/ml IL-27 for the length of time indicated, and cell lysates were prepared and analyzed by immunoblotting for P-STAT1, total STAT1, and gp130. […]

[6] = system: IL-27R-expressing BaF3 cells; assay: IL-27 stimulation, P-STAT1 immunoblot; conditions: 100 ng/ml IL-27, 10 min, cells lack gp130
Method: as §3, §4

[7] = system: IL-27R-expressing 293T cells; assay: IL-27 stimulation and gp130 siRNA depletion, P-STAT1 immunoblot
Method: as §3, §4

In the case of JAK inhibitor I, the cell growth ([1]; 0.5 μM JAK inhibitor I vs 0.1% DMSO, from day 0, FIG. 3(A)) is reported as “the growth of these cells ceases”, the cell viability ([1]; 0.5 μM JAK inhibitor I, trypan blue, FIG. 4(A)) is reported as “decreases” and the cell cycle arrest [2] is reported as “induces a G1 as well as a G2 cell cycle arrest”. The “number of cells in S-phase” value [2] was “dramatic decrease”, the “apoptosis (annexin V binding)” value [3] was “induction of apoptosis” and the ERK1/2 activation [4] was “prevents”. The “STAT1, -3 and -5 phosphorylation induced by IL-27R” value [4] was “blocks”.

B1: IL-27: recombinant human IL-27 (R&D Systems), cytokine used to stimulate cells (protein, UniProt Q8NEV9 29-243; Q14213 21-229, looked up)
Interleukin-27 subunit alpha: FPRPPGRPQLSLQELRREFTVSLHLARKLLSEVRGQAHRFAESHLPGVNLYLLPLGEQLPDVSLTFQAWRRLSDPERLCFISTTLQPFHALLGGLGTQGRWTNMERMQLWAMRLDLRDLQRHLRFQVLAAGFNLPEEEEEEEEEEEEERKGLLPGALGSALQGPAQVSWPQLLSTYRLLHSLELVLSRAVRELLLLSKAGHSVWPLGFPTLSPQP
Interleukin-27 subunit beta: RKGPPAALTLPRVQCRASRYPIAVDCSWTLPPAPNSTSPVSFIATYRLGMAARGHSWPCLQQTPTSTSCTITDVQLFSMAPYVLNVTAVHPWGSSSSFVPFITEHIIKPDPPEGVRLSPLAERQLQVQWEPPGSWPFPEIFSLKYWIRYKRQGAARFHRVGPIEATSFILRAVRPRARYYVQVAAQDLTDYGELSDWSLPATATMSLGK
For B1, the “IL-27-induced signaling (STAT1 phosphorylation)” value (“IL-27-induced signaling” for short) [5] was “not observed”, the “IL-27-induced signaling” value [6] was “not observed” and the “IL-27R/JAK2-V617F-mediated activation of STAT1” value ([7]; 100 ng/ml IL-27, 293T cells transfected with IL-27R and JAK2-V617F) was “not enhanced”. For the same molecule, the “IL-27-induced signaling” value ([7]; 100 ng/ml IL-27, cells express gp130) was “is seen”.

Source: patent US20100196915A1, “Method of Detecting Oncogenesis of Hematopoietic Cells” (UNIVERSITY OF SOUTH FLORIDA, priority 2007, published 2010)
